What was measured:
Assay in all cases: AUC of viability dose-response curve (% viability x log10 dose units); higher = less sensitive
Settings in all cases: 48 h
NOMO1 = tested on: NOMO1
Method in brief: (§1)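 Area under the curve was integrated by trapezoidal rule from a log-logistic fit of normalised viability, with curves exceeding full viability scaled and quality-control failures removed. The fit had four parameters over log10 doses. Viability came from CellTiter-Glo One luminescence, normalised per plate to DMSO and cell-free wells, after leukemia cells adapted to each medium (500 or 1000 cells/well, 1536-well plates) were exposed to library compounds in DMSO for 48 h at 37°C. The 11 threefold doses ran from 47 μM to 0.79 nM.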

P12-Ichikawa = tested on: P12-Ichikawa
Method in brief: as §1

SEM cells = tested on: SEM cells
Method in brief: as §1

[1] = RPMI 5 mM glucose + 10% dialyzed FBS

SMILES | AUC of viability dose-response curve (NOMO1; HPLM + 10% dialyzed FBS) | AUC of viability dose-response curve (NOMO1; RPMI 5 mM glucose + 10% FBS) | AUC of viability dose-response curve (NOMO1; [1]) | AUC of viability dose-response curve (P12-Ichikawa; HPLM + 10% dialyzed FBS) | AUC of viability dose-response curve (P12-Ichikawa; RPMI 5 mM glucose + 10% FBS) | AUC of viability dose-response curve (P12-Ichikawa; [1]) | AUC of viability dose-response curve (SEM cells; HPLM + 10% dialyzed FBS) | AUC of viability dose-response curve (SEM cells; RPMI 5 mM glucose + 10% FBS) | AUC of viability dose-response curve (SEM cells; [1])
C#C[C@]1(O)CC[C@H]2[C@@H]3CCc4cc(OC)ccc4[C@H]3CC[C@@]21C | 453 | 457 | 457 | 433 | 468 | 471 | 444 | 470 | 471
CNCC(O)C(O)C(O)C(O)CO.O=C(O)c1ccc(-c2cc3cccnc3c(-c3ccc4nonc4c3)n2)cc1 | 467 | 464 | 469 | 473 | 470 | 468 | 472 | 472 | 459
CN(C)CCCNC(=O)c1ccc(-c2cc(O)c3ncccc3c2)cc1 | 458 | 434 | 463 | 467 | 459 | 450 | 443 | 442 | 445
COc1ccc2c(c1OC)CN1CCc3cc4c(cc3C1C2)OCO4 (configuration not stated) | 322 | 330 | 331 | 356 | 316 | 311 | 288 | 263 | 271
COC(=O)[C@@H](N)CCCNC(=N)N[N+](=O)[O-] | 467 | 427 | 461 | 452 | 462 | 452 | 426 | 444 | 432
O=C(CCc1ccc(O)cc1)c1c(O)cc(O)cc1O[C@@H]1O[C@H](CO)[C@@H](O)[C@H](O)[C@H]1O | – | – | – | 428 | 405 | 408 | 454 | 426 | 412
CC(C)c1ccccc1Cc1cc(C(=O)Nc2ccc([S+](=O)([O-])c3ccccc3C(C)(C)C)cc2)c(O)c(O)c1O | 408 | 467 | 464 | 451 | 460 | 457 | 449 | 426 | 422
CN(C)c1ccc(Nc2nc(N)n(C(=O)c3c(F)cccc3F)n2)cc1 | 452 | 465 | 459 | – | – | – | 396 | 361 | 370
OC(COC1=C2C(=O)\C=C(/OC2=CC=C1)C([O-])=O)COC3=C4C(=O)\C=C(/OC4=CC=C3)C([O-])=O | 435 | 368 | 394 | – | – | – | – | – | –
CCOC1=CC(=CC=C1C/2=N/[C@@](C)(C3=CC=C(Cl)C=C3)[C@](C)(N2C(=O)N4CCN(CC4)CC(=O)N5CCOCC5)C6=CC=C(Cl)C=C6)C(C)(C)C | – | – | – | 465 | 461 | 443 | 436 | 432 | 439
CN[S+](=O)([O-])CCc1ccc2[nH]cc(C3CCN(C)CC3)c2c1 | 454 | 435 | 450 | 460 | 460 | 466 | 428 | 452 | 432
OCCCNc1cc(-c2ccnc(Nc3cccc(Cl)c3)n2)ccn1 | 264 | 258 | 262 | 308 | 294 | 295 | 249 | 260 | 254
Cc1cn(CCN2CCN(c3ccccc3-c3cc(C#N)cc(C(=O)NCCCN4CCCC4)c3)CC2)c2ccccc12 | 406 | 424 | 421 | 402 | 409 | 409 | 407 | 401 | 424
Cc1ncc([N+](=O)[O-])n1CCO | 467 | 462 | 461 | 477 | 472 | 469 | 467 | 477 | 449
COc1cc(N[S+](=O)([O-])c2ccc(N)cc2)nc(OC)n1 | 431 | 476 | 458 | 462 | 470 | 466 | – | – | –
N\C1=N\C2=C(N=C[N]2COC(CO)CO)C(=O)N1 | 445 | 449 | 448 | – | – | – | 444 | 387 | 449
C=CCn1c(=O)c2cnc(Nc3ccc(N4CCN(C)CC4)cc3)nc2n1-c1cccc(C(C)(C)O)n1 | 310 | 338 | 316 | 336 | 362 | 354 | 299 | 301 | 270
Cc1c(C(=O)Nc2cccc(C(F)(F)F)c2)cc(-c2ccccc2)n1CCCN1CCOCC1 | 458 | 446 | 460 | 438 | 449 | 454 | 454 | 458 | 446
O=C1NC(=O)/C(=C/c2cccc(C(F)(F)F)c2)S1 | 448 | 458 | 463 | 471 | 466 | 453 | 463 | 463 | 467
O=C1N\2CCC3=C([NH]C4=C3C=CC=C4)C2=N/C5=CC=CC=C15 | 465 | 461 | 466 | 465 | 457 | 454 | 461 | 456 | 451
CC(C)[C@H](CO)Nc1nc(Nc2cccc(Cl)c2)c2ncn(C(C)C)c2n1 | 304 | 342 | 351 | 385 | 404 | 387 | 316 | 255 | 284
CCCCCCCCc1ccc(CCC(N)(CO)CO)cc1 | 353 | 433 | 401 | 432 | 407 | 429 | 441 | 452 | 454
CC(NCc1ccc2c(c1)[nH]/c(=N\C(=O)c1ccc(-c3cn[nH]c3)s1)n2CC(C)(C)O)C(C)(C)C (configuration not stated) | 321 | 358 | 347 | 350 | 349 | 345 | 177 | 194 | 170
NC(=O)c1cccc(N)c1 | 471 | 454 | 465 | 452 | 451 | 454 | 436 | 384 | 442

SMILES | AUC of viability dose-response curve (NOMO1; HPLM + 10% dialyzed FBS) | AUC of viability dose-response curve (NOMO1; RPMI 5 mM glucose + 10% FBS) | AUC of viability dose-response curve (NOMO1; [1]) | AUC of viability dose-response curve (P12-Ichikawa; HPLM + 10% dialyzed FBS) | AUC of viability dose-response curve (P12-Ichikawa; RPMI 5 mM glucose + 10% FBS) | AUC of viability dose-response curve (P12-Ichikawa; [1]) | AUC of viability dose-response curve (SEM cells; HPLM + 10% dialyzed FBS) | AUC of viability dose-response curve (SEM cells; RPMI 5 mM glucose + 10% FBS) | AUC of viability dose-response curve (SEM cells; [1])
CN1C(=O)/C=C(/NCCN(CCO)CCCC2=CC=C(C=C2)[N+]([O-])=O)N(C)C1=O | 463 | 473 | 443 | 447 | 443 | 441 | 463 | 450 | 454
COc1cc2ncnc(Nc3cccc(Br)c3)c2cc1OC | 475 | 447 | 460 | 451 | 462 | 464 | 447 | 460 | 448
Cc1cc(O)c2c(c1)C(=O)c1cc(O)cc(O)c1C2=O | 462 | 437 | 454 | 467 | 468 | 449 | 457 | 470 | 469
O=C(CCCCCCC(=O)Nc1ccccc1)NO | 406 | 412 | 427 | 378 | 368 | 367 | 370 | 372 | 369
N[C@@H](CC(=O)N1CCn2c(nnc2C(F)(F)F)C1)Cc1cc(F)c(F)cc1F | 451 | 417 | 461 | 463 | 453 | 445 | 448 | 453 | 449
C[N+](C)([O-])CCNc1ccc(NCC[N+](C)(C)[O-])c2c1C(=O)c1c(O)ccc(O)c1C2=O | 383 | 365 | 391 | 354 | 302 | 305 | 298 | 272 | 281
CN[C@@H]1C[C@H]2O[C@@](C)([C@@H]1OC)n1c3ccccc3c3c4c(c5c6ccccc6n2c5c31)C(=O)N[C@H]4O | 279 | 264 | 289 | 280 | 249 | 271 | 220 | 226 | 232
O=c1[nH]cnc2c1ncn2[C@H]1CC[C@@H](CO)O1 | 447 | 420 | 431 | 468 | 463 | 444 | 460 | 409 | 409
COc1cc([C@@H]2c3cc4c(cc3[C@@H](O[C@@H]3O[C@@H]5CO[C@@H](c6cccs6)O[C@H]5[C@H](O)[C@H]3O)[C@H]3COC(=O)[C@H]23)OCO4)cc(OC)c1O | – | – | – | – | – | – | 329 | 319 | 284
CO[C@@H]1C(N(C)C(=O)c2ccccc2)C[C@H]2O[C@]1(C)n1c3ccccc3c3c4c(c5c6ccccc6n2c5c31)C(=O)NC4=O (some centres not stated) | – | – | – | 401 | 372 | 369 | 324 | 289 | 327
CO[C@H]1C[C@@H]2CC[C@@H](C)[C@@](O)(O2)C(=O)C(=O)N2CCCC[C@H]2C(=O)O[C@H]([C@H](C)C[C@@H]2CC[C@@H](OCCO)[C@H](OC)C2)CC(=O)[C@H](C)/C=C(/C)[C@@H](O)[C@@H](OC)C(=O)[C@H](C)C[C@H](C)\C=C/C=C\C=C/1C | 393 | 421 | 370 | 420 | 329 | 362 | 240 | 234 | 233
CCNc1cc(NC2CCC(O)CC2)nc(Nc2ccc3c(ccn3Cc3ccccc3)c2)n1 (configuration not stated) | 471 | 472 | 464 | 474 | 467 | 469 | 471 | 471 | 466
Nc1nc(OCc2ccccc2)c2nc[nH]c2n1 | 462 | 459 | 465 | 472 | 470 | 471 | 452 | 429 | 454
CCN(CC)CCN1C(=O)\C(=N/C2=CC=CC=C12)CC3=CC=C(OC)C=C3 | 472 | 474 | 468 | 470 | 465 | 460 | – | – | –
NC(=O)Nc1cc(-c2ccc(CN3CCOCC3)cc2)sc1C(N)=O | 369 | 331 | 338 | 236 | 246 | 266 | 262 | 240 | 240
CCCCCCCCCCCCCCCCCCOP(=O)([O-])OC1CC[N+](C)(C)CC1 | 469 | 470 | 467 | 470 | 462 | 465 | 455 | 468 | 442
CCN1C[C@]2(OC(=O)c3ccccc3NC(C)=O)CC[C@H](OC)[C@@]34[C@@H]2C[C@@H]([C@@H]13)[C@@]1(O)C[C@H](OC)[C@H]2C[C@@H]4[C@]1(O)[C@H]2OC | 477 | 465 | 477 | 473 | 475 | 469 | 461 | 439 | 430
COc1ccc(Nc2cc(-c3cnc(N)nc3)nc(N3CCOCC3)n2)cn1 | 373 | 375 | 361 | 433 | 387 | 399 | 398 | 418 | 389
COC[C@H]1OC(=O)C2=COC3=C2[C@@]1(C)\C4=C(\[C@@H]5CC[C@H](O)[C@@]5(C)C[C@H]4OC(C)=O)C3=O | 440 | 466 | 458 | – | – | – | – | – | –
Cc1ccc(-c2ncn(-c3ccc(Nc4nccc(-c5cccc(N6CCOCC6)c5)n4)cc3)n2)cn1 | – | – | – | 259 | 244 | 235 | 229 | 226 | 217
NCC(=O)Nc1ccc(-n2nc(C(F)(F)F)cc2-c2ccc3c(ccc4ccccc43)c2)cc1 | 458 | 462 | 447 | – | – | – | 460 | 457 | 424
CCCCN(CCCC)C(=O)CN1C[C@H](c2ccc3c(c2)OCO3)[C@@H](C(=O)O)[C@@H]1c1ccc(OC)cc1 | 457 | 470 | 464 | – | – | – | 408 | 427 | 432
O=C1CCc2ccc(OCCCCN3CCN(c4cccc(Cl)c4Cl)CC3)cc2N1 | 449 | 433 | 438 | 473 | 471 | 449 | – | – | –
